“Also recorded” adds a separate entry of the source.
Legend:
[1] = without ritonavir coadministration; cited from earlier work
[2] = system: CYP3A4; settings: cited from earlier work
[3] = system: Caco-2; settings: cited from earlier work
[4] = Clinical pharmacokinetics of nirmatrelvir in healthy volunteers; assay type: in vivo, human; settings: for renal clearance in the presence and absence of ritonavir: with vs without ritonavir
[5] = In vitro precipitation test of nirmatrelvir SDD formulation; assay type: physicochemical; settings: Pfizer data on file
[6] = system: MDCK-LE; settings: cited from earlier work
[7] = Paxlovid PBPK model verification, nirmatrelvir predicted vs observed exposure; set-up: species or system human
[8] = Simcyp ritonavir first-order compound file; set-up: species or system human; settings: PK and DDI

SMILES | half-life [1] [h] | in vitro fm,CYP3A4 ([2]; formation rate of the major metabolites with selective inhibitors) | main metabolizing enzyme ([2]; in vitro reaction phenotyping data) | Papp [3] | oral clearance (CLPO) ([4]; SDD 300 mg single dose without ritonavir, Dataset #1, geometric mean) [L/h] | renal clearance in the presence and absence of ritonavir [4] | renal clearance in the presence and absence of ritonavir ([4]; listed as nirmatrelvir) | period remained in solution without precipitating [5] [h] | Papp [6] | deviation of predicted AUC and Cmax from the observed [7] [%] | predicted vs observed values, ritonavir model [8]
CC(C)(C)[C@H](NC(=O)C(F)(F)F)C(=O)N1C[C@H]2[C@@H]([C@H]1C(=O)N[C@H](C#N)C[C@@H]1CCNC1=O)C2(C)C [Nirmatrelvir, nirmatrelvir] | 2 | 0.99 | mainly metabolized by CYP3A4; also recorded: predominantly metabolized by CYP3A4 | 0.66–1.19 10^–6 cm/s | 28.36 | did not change | remains the same | 24 | 1.76 10^–6 cm/s | ≤ 20 | 
CC(C)c1nc(CN(C)C(=O)N[C@H](C(=O)N[C@@H](Cc2ccccc2)C[C@H](O)[C@H](Cc2ccccc2)NC(=O)OCc2cncs2)C(C)C)cs1 [Ritonavir, ritonavir] |  |  |  |  |  |  |  |  |  |  | within twofold
